Source: US10189831B2, “Non-nucleoside reverse transcriptase inhibitors” (Merck Sharp & Dohme Corp., priority 2012, dated 2019)

Target: HIV-1 RT wild-type enzyme (Human immunodeficiency virus type 1 group M subtype B (isolate HXB2) (HIV-1), UniProt P04585)
Assay: Determination of HIV-1 reverse transcriptase inhibitory activity (RT polymerase assay)
Format: biochemical
Conditions: HIV-1 RT wild-type enzyme 83 pM, RNA-dependent DNA polymerase reaction
Method: The heterodimeric nucleic acid substrate used in the HIV-1 RT polymerase reactions was generated by annealing the DNA primer, biotinylated pD500 (Sigma Aldrich, USA, 5′-biotin-ttg aaa tga ctg cgg tac ggc-3′), SEQ ID NO. 1 to the nucleotide RNA template t500 (derived from hepatitis C virus [HCV] sequence, IBA, Germany, 5′-[…]-3′), SEQ ID NO 2.). […] The mixture was then preincubated on an orbital shaker for 30 min at room temperature in microtiter plates (Costar 3365, Corning, USA). A polymerization reaction was initiated by the addition of RNA template/pD500 DNA primer hybrid (16.6 nM final of RNA/DNA hybrid) and dNTPs (2 μM dATP, dGTP, dCTP and 66.6 nM Ru-dUTP (Meso Scale Discovery, USA)). Plate was sealed and incubated for 5-10 min at room temperature on an orbital shaker. Plate was then incubated for 90 min at 37° C. and reactions quenched with 60 μl quenching buffer (50 mM EDTA, 0.7% BSA, 0.7% Tween-20, 0.017% sodium azide in PBS). […] After washing plate 3 times with 150 μL 1×PBS and blotting dry between cycles, 150 μL 1× Read Buffer T (4× Read Buffer T, Meso Scale Discovery) was added and incubated for 5 min at room temperature before counting on a Sector Imager S6000 (Meso Scale Discovery). Titration curves and IC50 values were calculated using a four parameter logistic fit according to standard procedures. […]

SMILES: CC(C)c1ccc(-c2cc(Cn3cnc(C(F)(F)F)c(Oc4cc(Cl)cc(C#N)c4)c3=O)n[nH]c2=O)cc1 [Example 49, 3-chloro-5-((1-((5-(4-isopropylphenyl)-6-oxo-1,6-dihydropyridazin-3-yl)methyl)-6-oxo-4-(trifluoromethyl)-1,6-dihydropyrimidin-5-yl)oxy)benzonitrile]
- IC50: 15 nM
